Source: paper PMC9161449, “FUT8-Directed Core Fucosylation of N-glycans Is Regulated by the Glycan Structure and Protein Environment” (ACS Catalysis, 2021)
Where “and” joins values, the source holds several entries; their conditions need not be identical. Equal values may be shown once.

Assays:
[1] = target: T1, human FUT8 (Homo sapiens, UniProt Q9BYC5); experiment: Isothermal titration calorimetry (ITC) of ligands binding to FUT8
T1 construct: made in house
T1 sequence (Q9BYC5 1-575): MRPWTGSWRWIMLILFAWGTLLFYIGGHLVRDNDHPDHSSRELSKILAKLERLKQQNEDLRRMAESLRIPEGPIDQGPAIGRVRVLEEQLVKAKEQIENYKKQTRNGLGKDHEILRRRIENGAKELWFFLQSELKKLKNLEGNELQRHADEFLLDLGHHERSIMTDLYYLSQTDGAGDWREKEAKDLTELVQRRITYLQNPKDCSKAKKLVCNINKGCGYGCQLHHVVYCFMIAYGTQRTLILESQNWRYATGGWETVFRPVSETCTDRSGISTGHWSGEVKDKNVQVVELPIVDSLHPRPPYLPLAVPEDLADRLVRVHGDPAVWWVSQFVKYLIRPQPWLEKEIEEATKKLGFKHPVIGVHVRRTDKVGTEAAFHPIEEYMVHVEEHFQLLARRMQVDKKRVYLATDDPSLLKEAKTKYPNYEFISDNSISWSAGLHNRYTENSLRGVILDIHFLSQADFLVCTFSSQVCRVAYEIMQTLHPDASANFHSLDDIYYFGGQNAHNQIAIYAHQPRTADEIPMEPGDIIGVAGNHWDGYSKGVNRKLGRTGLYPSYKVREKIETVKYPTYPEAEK
Protocol: (§1) The human FUT8 was purified as previously described.[12]
ITC was performed to characterize the interaction of FUT8 with GDP, G0, the G0-peptide, the M3N2-peptide, M3N2, and M5N2-Asn. All experiments were carried out in an Auto-iTC200 (Microcal, GE Healthcare) at 25 °C. The concentration of FUT8 was 70 μM and the ligand concentration ranged from 400 μM to 1 mM. The experiments used 25 mM Tris (pH 7.5) and 150 mM NaCl for the characterization of the binding of FUT8 against GDP and G0. To characterize the binding of FUT8 against all N-glycans in the presence of an excess of GDP, the conditions were 25 mM Tris (pH 7.5), 150 mM NaCl, and 1 mM GDP. The experiments were performed in duplicate. Data integration, correction, and analysis were carried out in Origin 7 (Microcal). The data were fitted to a one-site equilibrium-binding model.

[2] = target: human FUT8 (α-1,6-fucosyltransferase) (human) (UniProt Q9BYC5); experiment: ITC; Auto-iTC200, 25 °C; FUT8 70 μM, ligand 400 μM to 1 mM; 25 mM Tris pH 7.5, 150 mM NaCl, 1 mM GDP (excess GDP); one-site model; duplicate
[3] = test system: CHO^KO:mgat1; experiment: Site-specific N-glycan analysis of recombinant glycoproteins produced in CHO^KO:mgat1; assay type: cell-based; settings: for Man5-GlcNAc2-Fuc/total / Man5-GlcNAc2/total: total = sum of top five glycopeptide intensities by LC–MS
[4] = target: T1, human FUT8; experiment: FUT8 enzyme kinetics, GDP-Glo luminescence assay; assay type: biochemical
Protocol: as §1
Enzyme kinetics for FUT8 were determined using GDP-Glo luminescence assays (Promega). Reactions contained 100 nM FUT8 in 25 mM Tris (pH 7.5), 150 mM NaCl, and 200 μM GDP-fucose in the presence of the ligands. The concentrations of G0, the G0-peptide, the M3N2-peptide, M3N2, and M5N2-Asn ranged from 5 μM to 1 mM. To determine the kinetic parameters for GDP-fucose, we used 100 nM FUT8 in 25 mM Tris (pH 7.5), 150 mM NaCl, and variable concentrations of GDP-fucose (from 5 to 500 μM) in the presence of 500 μM of G0. Reactions were incubated for 30 min at 37 °C and stopped using 5 μL of GDP-detection reagent at a 1:1 ratio in white and opaque 384-well plates. Then, the plates were incubated in the dark for 1 h at room temperature. Subsequently, the luminance values were obtained by using a Synergy HT plate reader (Biotek).
To estimate the amount of GDP produced in the glycosyltransferase reaction, we created a GDP standard curve. The values were corrected for enzyme hydrolysis in the absence of the substrate acceptor and fitted to a nonlinear Michaelis–Menten equation in GraphPad Prism 6 software from which the Km, kcat, and Vmax along with their standard deviations were obtained. All the experiments were performed in duplicate.

[5] = target: T1, human FUT8; experiment: FUT8 substrate specificity by MALDI-TOF MS; assay type: biochemical; settings: 18 μM FUT8, 18 h at RT (long incubation)
Protocol: Solutions of the different N-glycan structures (1 nmol) were incubated with a FUT8 enzyme (18 μM) and GDP-fucose (2 nmol) in 25 mM Tris and 150 mM NaCl (pH 7.5) (total volume of 10 μL) for 18 h at RT. The reaction mixture was analyzed by MALDI-TOF mass spectrometry employing a solution of 2,5-dihydroxybenzoic acid (DHB, 5 mg/mL in CH3CN:0.1% TFA, 30:70, containing 0.05% NaCl) as a matrix. The MALDI-TOF spectra were recorded on an Ultraflextreme III time-of-flight mass spectrometer equipped with a pulsed Nd:YAG laser (355 nm) and controlled by FlexControl 3.3 software (Bruker Daltonics, Bremen, Germany). The m/z range was selected according to the mass of the sample and the acquired spectra were processed with FlexAnalysis 3.3 software (Bruker Daltonics, Bremen, Germany).

[6] = target: T1, human FUT8; experiment: STD NMR of ligands with FUT8; assay type: binding; settings: 20 μM FUT8, absence or presence of GDP (1 mM), 283 K
Protocol: All experiments were performed at a temperature of 283 K using a Bruker AVANCE-III 800 MHz spectrometer with a 5 mm TXI triple resonance probe with z axis pulse field gradients (5 mm PATXI 1H-13C/15N/D Z-GRD). The ligands, M3N2, the M3N2-peptide, the G0-peptide, and the naked peptide, had their labile protons exchanged with deuterium by dissolving in D2O, freeze-drying for three times, and finally dissolving at 5 mM in D2O. M3N2-peptide, G0-peptide, and naked peptide ^1H-NMR and ^13C-NMR signals were assigned using ^1H-^13C HSQC (hsqcedetgp), ^1H-^13C HSQC-TOCSY (hsqcgpmlph), TOCSY (mlevph), COSY (cosygmpfqf), and HMBC (hmbcgplpndqf). 2D-NOESY experiments were carried out for M3N2 and the M3N2-peptide using the Bruker pulse program noesygpph with mixing times (d8) of 100, 150, 200, 250, 300, 400, 600, 800, 1000, and 1500 ms. The relaxation time was set to 1 s. Fourier transform was applied to both dimensions and the corresponding horizontal traces were extracted for H1B (4.47 ppm) and H5A (3.42 ppm) in the case of the M3N2-peptide. […] Average H1A-H5A and H1B-H5B distances were calculated from the 1 μs MD simulation and used for the calculation according to the equation in Figure S9c.
STD NMR spectra were measured for the corresponding N-glycans in the presence of 20 μM FUT8 both with and without GDP (1 mM) using the Bruker pulse program stddiff.3. […]

[7] = excess GDP (1 mM), 25 °C, pH 7.5
[8] = 100 nM FUT8, 37 °C, 30 min, acceptors with 200 μM GDP-fucose, GDP-Fuc with saturating G0 (500 μM)
[9] = GDP titrated into FUT8, 25 °C, pH 7.5

Question: Which Kd [1, 7] does the source give for `CC(=O)N[C@@H]1[C@@H](O)[C@H](O[C@@H]2O[C@H](CO)[C@@H](O[C@@H]3O[C@H](CO[C@H]4O[C@H](CO)[C@@H](O)[C@H](O)[C@@H]4O)[C@@H](O)[C@H](O[C@H]4O[C@H](CO)[C@@H](O)[C@H](O)[C@@H]4O)[C@@H]3O)[C@H](O)[C@H]2NC(C)=O)[C@@H](CO)O[C@H]1NC(=O)C[C@H](NC(=O)[C@H](C)NC(=O)[C@@H](NC(=O)[C@@H](N)CCCCN)C(C)C)C(=O)N[C@@H](CCCCN)C(=O)N[C@H](C(=O)O)[C@@H](C)O` [M3N2-peptide, Man3GlcNAc2 N-glycopeptide] here?
Answer: The Kd was 406 ± 159 µM.

Question: `CC(=O)N[C@@H]1[C@@H](O)[C@H](O[C@@H]2O[C@H](CO)[C@@H](O[C@@H]3O[C@H](CO[C@H]4O[C@H](CO)[C@@H](O)[C@H](O)[C@@H]4O[C@@H]4O[C@H](CO)[C@@H](O)[C@H](O)[C@H]4NC(C)=O)[C@@H](O)[C@H](O[C@H]4O[C@H](CO)[C@@H](O)[C@H](O)[C@@H]4O[C@@H]4O[C@H](CO)[C@@H](O)[C@H](O)[C@H]4NC(C)=O)[C@@H]3O)[C@H](O)[C@H]2NC(C)=O)[C@@H](CO)O[C@H]1NC(=O)C[C@H](NC(=O)[C@H](C)NC(=O)[C@@H](NC(=O)[C@@H](N)CCCCN)C(C)C)C(=O)N[C@@H](CCCCN)C(=O)N[C@H](C(=O)O)[C@@H](C)O` [G0-peptide] was tested. Which Kd [1, 7] did it give?
Answer: The Kd was 10 ± 4 µM.

Question: “G0-peptide (KVANKT carrying the biantennary complex N-glycan G0 on Asn4)” was tested. Which dH [2] did it give?
Answer: Its dH is -3.2 kcal/mol.

Question: And the stoichiometry N [2]?
Answer: The stoichiometry N was 0.84.

Question: With “EPO: recombinant erythropoietin expressed in CHO cells” as the compound, how does the Man5-GlcNAc2-Fuc/total ([3]; EPO N-glycosite N51) read?
Answer: Its Man5-GlcNAc2-Fuc/total is 0.48.

Question: And the Man5-GlcNAc2/total ([3]; EPO N-glycosite N51)?
Answer: Its Man5-GlcNAc2/total is 0.52.

Question: What about the Man5-GlcNAc2-Fuc/total ([3]; EPO N-glycosite N65) of the same compound?
Answer: The Man5-GlcNAc2-Fuc/total was 0.90.

Question: What about the Man5-GlcNAc2/total ([3]; EPO N-glycosite N65) of the same compound?
Answer: The Man5-GlcNAc2/total was 0.10.

Question: And the Man5-GlcNAc2-Fuc/total ([3]; EPO N-glycosite N110)?
Answer: The Man5-GlcNAc2-Fuc/total was 0.67.

Question: And the Man5-GlcNAc2/total ([3]; EPO N-glycosite N110)?
Answer: Its Man5-GlcNAc2/total is 0.33.

Question: What about the “Core fucosylation of high-mannose N-glycan in KO mgat1” value ([3]; N65 glycosite) of the same compound?
Answer: Its value is “almost exclusively core-fucosylated”.

Question: And the “Core fucosylation of high-mannose N-glycans in KO mgat1” value ([3]; all glycosites)?
Answer: The value was “acquired core Fuc to some degree”.

Question: For “M3N2-peptide (Man3GlcNAc2 N-glycopeptide, KVANKT)”, which dH [2] is on record?
Answer: Its dH is 7.7 kcal/mol.

Question: And the stoichiometry N [2]?
Answer: Its stoichiometry N is 1.6.

Question: Which results are given for `CC(=O)N[C@H]1[C@H](O[C@H]2[C@H](O)[C@@H](NC(C)=O)C(O)O[C@@H]2CO)O[C@H](CO)[C@@H](O[C@@H]2O[C@H](CO[C@H]3O[C@H](CO)[C@@H](O)[C@H](O)[C@@H]3O)[C@@H](O)[C@H](O[C@H]3O[C@H](CO)[C@@H](O)[C@H](O)[C@@H]3O)[C@@H]2O)[C@@H]1O` (some centres unmarked) [M3N2, Man3GlcNAc2 N-glycan oligosaccharide]?
Answer: FUT8 activity against acceptor substrate ([4]; acceptor 5 μM to 1 mM): inactive; Core fucosylation by FUT8, qualitative (MALDI-TOF MS) [5]: very poorly glycosylated; STD NMR interaction with FUT8 [6]: no STD NMR signals were observed; Binding to FUT8 by ITC ([1]; excess GDP (1 mM)): could not determine a Kd

Question: For `C[C@@H]1O[C@H](OP(=O)(O)OP(=O)(O)OC[C@H]2O[C@@H](n3cnc4c(=O)[nH]c(N)nc43)[C@H](O)[C@@H]2O)[C@@H](O)[C@H](O)[C@@H]1O` [GDP-Fuc, GDP-β-L-fucose], which Km [4, 8] is on record?
Answer: Its Km is 14.6 ± 3.4 µM.

Question: And the Vmax [4, 8]?
Answer: The Vmax was 244.3 ± 13.1 nmol·min^–1·mg^–1.

Question: What about the kcat [4, 8] of the same compound?
Answer: The kcat was 14.17 ± 0.76 min^–1.

Question: What about the “Catalytic efficiency of the transfer reaction relative to G0” value ([4]; GDP-Fuc more efficient than G0) of the same compound?
Answer: Its value is roughly 10 fold.

Question: Which results are given for `CC(=O)N[C@@H]1[C@@H](O)[C@H](O[C@@H]2O[C@H](CO)[C@@H](O[C@@H]3O[C@H](CO[C@H]4O[C@H](CO[C@H]5O[C@H](CO)[C@@H](O)[C@H](O)[C@@H]5O)[C@@H](O)[C@H](O[C@H]5O[C@H](CO)[C@@H](O)[C@H](O)[C@@H]5O)[C@@H]4O)[C@@H](O)[C@H](O[C@H]4O[C@H](CO)[C@@H](O)[C@H](O)[C@@H]4O)[C@@H]3O)[C@H](O)[C@H]2NC(C)=O)[C@@H](CO)O[C@H]1NC(=O)C[C@H](N)C(=O)O` [M5N2-Asn, Man5GlcNAc2-Asn]?
Answer: Initial velocity, fold worse than that of G0 and the G0-peptide ([4]; 1 mM acceptor substrate): ~14 fold; Binding to FUT8 by ITC ([1]; excess GDP (1 mM)): could not observe a binding titration profile

Question: Which results are given for `Nc1nc2c(ncn2[C@@H]2O[C@H](COP(=O)(O)OP(=O)(O)O)[C@@H](O)[C@H]2O)c(=O)[nH]1` [GDP, reference compound]?
Answer: Kd [1, 9]: 6.11 µM and 6.1 µM; n (stoichiometry of binding) [1, 9]: 0.60; ΔG [1, 9]: –7.09 ± 1.65 kcal/mol; ΔH [1, 9]: –5.02 ± 0.4 kcal/mol; –TΔS [1, 9]: –2.07 ± 0.48 kcal/mol
